Tested on: 832693-133-R-J1-PDC multi-cell spheroids, viability
Test: Anticancer human tumor 832693-133-R-J1-PDC patient-derived head and neck squamous carcinoma cell line growth inhibition [IpAb]
Conditions: for IC50: curve of first compound; for viability, T/C: stronger effect = lower value
Outline: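 Multi-cell spheroids of 60% tumour cells, 25% HUVEC and 15% MSC in ultra-low-attachment U-bottom wells, treated with agents combined with ipatasertib or abemaciclib. Half-log ranges top out near clinical Cmax, or 10 microM when Cmax is unknown.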

[1] = second compound 0.01 µM, first compound 0.00316 µM
[2] = second compound 0.01 µM, first compound 0.01 µM
[3] = second compound 0.01 µM, first compound 0.0316 µM
[4] = second compound 0.01 µM, first compound 0.1 µM
[5] = second compound 0.0316 µM, first compound 0.00316 µM
[6] = second compound 0.0316 µM, first compound 0.01 µM
[7] = second compound 0.0316 µM, first compound 0.0316 µM
[8] = second compound 0.0316 µM, first compound 0.1 µM
[9] = second compound 0.1 µM, first compound 0.00316 µM
[10] = second compound 0.1 µM, first compound 0.01 µM
[11] = second compound 0.1 µM, first compound 0.0316 µM
[12] = second compound 0.1 µM, first compound 0.1 µM
[13] = second compound 0.316 µM, first compound 0.00316 µM
[14] = second compound 0.316 µM, first compound 0.01 µM
[15] = second compound 0.316 µM, first compound 0.0316 µM
[16] = second compound 0.316 µM, first compound 0.1 µM
[17] = second compound 1 µM, first compound 0.00316 µM
[18] = second compound 1 µM, first compound 0.01 µM
[19] = second compound 1 µM, first compound 0.0316 µM
[20] = second compound 1 µM, first compound 0.1 µM
[21] = second compound 0.01 µM, first compound 0.316 µM
[22] = second compound 0.01 µM, first compound 1 µM
[23] = second compound 0.01 µM, first compound 3.16 µM
[24] = second compound 0.01 µM, first compound 10 µM
[25] = second compound 0.0316 µM, first compound 0.316 µM
[26] = second compound 0.0316 µM, first compound 1 µM
[27] = second compound 0.0316 µM, first compound 3.16 µM
[28] = second compound 0.0316 µM, first compound 10 µM
[29] = second compound 0.1 µM, first compound 0.316 µM
[30] = second compound 0.1 µM, first compound 1 µM
[31] = second compound 0.1 µM, first compound 3.16 µM
[32] = second compound 0.1 µM, first compound 10 µM
[33] = second compound 0.316 µM, first compound 0.316 µM
[34] = second compound 0.316 µM, first compound 1 µM
[35] = second compound 0.316 µM, first compound 3.16 µM
[36] = second compound 0.316 µM, first compound 10 µM
[37] = second compound 1 µM, first compound 0.316 µM
[38] = second compound 1 µM, first compound 1 µM
[39] = second compound 1 µM, first compound 3.16 µM
[40] = second compound 1 µM, first compound 10 µM
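Further: spheroids exposed to the drugs for one week before the viability readout.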
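Wherever viability, T/C is given: 100% = DMSO vehicle control wells.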

Work on `CC(C)n1nc(-c2ccc3oc(N)nc3c2)c2c(N)ncnc21` + CCN1CCN(Cc2ccc(Nc3ncc(F)c(-c4cc(F)c5nc(C)n(C(C)C)c5c4)n3)nc2)CC1 yielded an IC50 (second compound 0.01 µM) greater than 100 nM, an IC50 (second compound 0.0316 µM) of 36.3 nM and an IC50 (second compound 0.1 µM) of 10.6 nM. The IC50 (second compound 0.316 µM) was 2.03 nM, the IC50 (second compound 1 µM) was 0.859 nM and the viability, T/C (second compound 0.01 µM, first compound 0.000316 µM) was 83%. It also gave a viability, T/C (second compound 0.01 µM, first compound 0.001 µM) of 82.8%, a viability, T/C [1] of 73.5% and a viability, T/C [2] of 77.8%. For the same molecule, the viability, T/C [3] was 50.6%, the viability, T/C [4] was 53.2% and the viability, T/C (second compound 0.0316 µM, first compound 0.000316 µM) was 71.8%. It also gave a viability, T/C (second compound 0.0316 µM, first compound 0.001 µM) of 73.6%, a viability, T/C [5] of 64% and a viability, T/C [6] of 61%. For the same molecule, the viability, T/C [7] was 52.4%, the viability, T/C [8] was 38.4% and the viability, T/C (second compound 0.1 µM, first compound 0.000316 µM) was 61%. For the same molecule, the viability, T/C (second compound 0.1 µM, first compound 0.001 µM) was 56%, the viability, T/C [9] was 52.7% and the viability, T/C [10] was 53%. The viability, T/C [11] was 43%, the viability, T/C [12] was 34.5% and the viability, T/C (second compound 0.316 µM, first compound 0.000316 µM) was 50.6%. It also gave a viability, T/C (second compound 0.316 µM, first compound 0.001 µM) of 55.7%, a viability, T/C [13] of 49% and a viability, T/C [14] of 42.3%. For the same molecule, the viability, T/C [15] was 42.9%, the viability, T/C [16] was 34.8% and the viability, T/C (second compound 1 µM, first compound 0.000316 µM) was 59.5%. It also gave a viability, T/C (second compound 1 µM, first compound 0.001 µM) of 50.3%, a viability, T/C [17] of 41.6% and a viability, T/C [18] of 38.2%. It also gave a viability, T/C [19] of 39.8% and a viability, T/C [20] of 38.6%.
With `CC1(C)CCC(CN2CCN(c3ccc(C(=O)NS(=O)(=O)c4ccc(NCC5CCOCC5)c([N+](=O)[O-])c4)c(Oc4cnc5[nH]ccc5c4)c3)CC2)=C(c2ccc(Cl)cc2)C1` + CCN1CCN(Cc2ccc(Nc3ncc(F)c(-c4cc(F)c5nc(C)n(C(C)C)c5c4)n3)nc2)CC1 the IC50 (second compound 0.01 µM) was 5410 nM, the IC50 (second compound 0.0316 µM) was 6550 nM and the IC50 (second compound 0.1 µM) was 4190 nM. For the same molecule, the IC50 (second compound 0.316 µM) was 4120 nM, the IC50 (second compound 1 µM) was 4600 nM and the viability, T/C [3] was 93.7%. It also gave a viability, T/C [4] of 104%, a viability, T/C [21] of 102% and a viability, T/C [22] of 96.1%. For the same molecule, the viability, T/C [23] was 75.2%, the viability, T/C [24] was 21.2% and the viability, T/C [7] was 89%. For the same molecule, the viability, T/C [8] was 93.9%, the viability, T/C [25] was 85.8% and the viability, T/C [26] was 86.5%. It also gave a viability, T/C [27] of 83.6%, a viability, T/C [28] of 30.4% and a viability, T/C [11] of 73.1%. The viability, T/C [12] was 69%, the viability, T/C [29] was 78.1% and the viability, T/C [30] was 71.2%. It also gave a viability, T/C [31] of 60.4%, a viability, T/C [32] of 17.7% and a viability, T/C [15] of 55.6%. For the same molecule, the viability, T/C [16] was 61%, the viability, T/C [33] was 51.9% and the viability, T/C [34] was 67.3%. The viability, T/C [35] was 75.5%, the viability, T/C [36] was 9.24% and the viability, T/C [19] was 63.9%. For the same molecule, the viability, T/C [20] was 72.1%, the viability, T/C [37] was 80.2% and the viability, T/C [38] was 68.5%. The viability, T/C [39] was 72.9% and the viability, T/C [40] was 5.47%.
In the case of `CCCS(=O)(=O)Nc1ccc(F)c(C(=O)c2c[nH]c3ncc(-c4ccc(Cl)cc4)cc23)c1F` + CCN1CCN(Cc2ccc(Nc3ncc(F)c(-c4cc(F)c5nc(C)n(C(C)C)c5c4)n3)nc2)CC1, the IC50 (second compound 0.01 µM) is reported as 5060 nM, the IC50 (second compound 0.0316 µM) is reported as 3490 nM and the IC50 (second compound 0.1 µM) is reported as 1240 nM. It also gave an IC50 (second compound 0.316 µM) of less than 31.6 nM, an IC50 (second compound 1 µM) of 77.5 nM and a viability, T/C [3] of 97.9%. The viability, T/C [4] was 105%, the viability, T/C [21] was 100% and the viability, T/C [22] was 87.6%. For the same molecule, the viability, T/C [23] was 63.6%, the viability, T/C [24] was 30.9% and the viability, T/C [7] was 88.7%. For the same molecule, the viability, T/C [8] was 88.4%, the viability, T/C [25] was 81.5% and the viability, T/C [26] was 74.9%. For the same molecule, the viability, T/C [27] was 51.4%, the viability, T/C [28] was 28.3% and the viability, T/C [11] was 66.3%. For the same molecule, the viability, T/C [12] was 60.1%, the viability, T/C [29] was 64.9% and the viability, T/C [30] was 51.9%. For the same molecule, the viability, T/C [31] was 35.7%, the viability, T/C [32] was 15.2% and the viability, T/C [15] was 44.8%. The viability, T/C [16] was 51.9%, the viability, T/C [33] was 40.4% and the viability, T/C [34] was 36.9%. It also gave a viability, T/C [35] of 26.6%, a viability, T/C [36] of 13.4% and a viability, T/C [19] of 50.5%. For the same molecule, the viability, T/C [20] was 49.6%, the viability, T/C [37] was 44.2% and the viability, T/C [38] was 24.8%. It also gave a viability, T/C [39] of 18.8% and a viability, T/C [40] of 13.3%.
In the case of `COc1c(OCCCN2CCOCC2)ccc2c3n(c(=NC(=O)c4cnc(N)nc4)nc12)CCN3` + CCN1CCN(Cc2ccc(Nc3ncc(F)c(-c4cc(F)c5nc(C)n(C(C)C)c5c4)n3)nc2)CC1, the IC50 (second compound 0.01 µM) is reported as 14.4 nM, the IC50 (second compound 0.0316 µM) is reported as 11.2 nM and the IC50 (second compound 0.1 µM) is reported as 7.16 nM. For the same molecule, the IC50 (second compound 0.316 µM) was 4.44 nM, the IC50 (second compound 1 µM) was 6.11 nM and the viability, T/C [1] was 89.4%. For the same molecule, the viability, T/C [2] was 61.8%, the viability, T/C [3] was 24.7% and the viability, T/C [4] was 7.08%. The viability, T/C [21] was 3.46%, the viability, T/C [22] was 5.82% and the viability, T/C [5] was 74.2%. For the same molecule, the viability, T/C [6] was 52.7%, the viability, T/C [7] was 23.4% and the viability, T/C [8] was 5.88%. It also gave a viability, T/C [25] of 3%, a viability, T/C [26] of 2.63% and a viability, T/C [9] of 60.1%. The viability, T/C [10] was 45.6%, the viability, T/C [11] was 22.1% and the viability, T/C [12] was 6.68%. The viability, T/C [29] was 3.33%, the viability, T/C [30] was 3.51% and the viability, T/C [13] was 53.8%. For the same molecule, the viability, T/C [14] was 40.8%, the viability, T/C [15] was 21.5% and the viability, T/C [16] was 9.72%. For the same molecule, the viability, T/C [33] was 6.61%, the viability, T/C [34] was 6.55% and the viability, T/C [17] was 53.2%. The viability, T/C [18] was 47.7%, the viability, T/C [19] was 23.4% and the viability, T/C [20] was 16.2%. The viability, T/C [37] was 12% and the viability, T/C [38] was 14.8%.

— PubChem BioAssay AID2060337 (Molecular Pharmacology Branch, DTP, NCI, 2025)
